# Measured values reported in patent publication US20170296682A1, “DERIVATIVES OF DIBENZOTHIOPHENE IMAGING OF alpha-7 NICOTINIC ACETYLCHOLINE RECEPTORS” (THE JOHNS HOPKINS UNIVERSITY, priority 2015, published 2017).
# Values joined by “and” are separate entries in the source; they are usually repeats but may differ in a detail not shown here. Equal values may be shown once. Read-outs that look alike come from different tables or passages of the source.
# Assays:
# [1] = target: α3β2-nAChR (Rattus norvegicus, UniProt P04757+P12390); assay: Heteromeric nAChR binding assay, transfected HEK293 membranes, [3H]epibatidine; settings: stably transfected HEK293 cells, [3H]epibatidine (0.5 nM)
# [2] = target: α4β2-nAChR (Rattus norvegicus, UniProt P09483+P12390); assay: as above
# [3] = target: T1, α7-nAChR (Mus musculus, UniProt P49582); settings: in vivo
# [4] = target: T2, Human 5-HT3 (Homo sapiens, UniProt P46098); assay: 5-HT3(h) binding assay, recombinant HEK293 cells, [3H]GR65630
# T2 sequence (P46098 24-478): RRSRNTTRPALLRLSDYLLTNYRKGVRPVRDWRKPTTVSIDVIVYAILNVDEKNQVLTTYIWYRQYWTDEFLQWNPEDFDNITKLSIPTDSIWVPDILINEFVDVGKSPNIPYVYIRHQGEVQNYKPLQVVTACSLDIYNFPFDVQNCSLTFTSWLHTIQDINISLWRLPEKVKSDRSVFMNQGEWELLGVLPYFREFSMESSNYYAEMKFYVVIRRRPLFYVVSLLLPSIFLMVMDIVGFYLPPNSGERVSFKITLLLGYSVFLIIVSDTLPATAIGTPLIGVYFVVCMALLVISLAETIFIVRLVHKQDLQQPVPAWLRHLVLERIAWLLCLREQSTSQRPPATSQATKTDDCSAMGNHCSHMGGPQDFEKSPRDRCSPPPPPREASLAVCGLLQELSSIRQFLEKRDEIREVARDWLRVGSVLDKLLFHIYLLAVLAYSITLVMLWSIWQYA
# [5] = target: α2β2-nAChR (Rattus norvegicus, UniProt P12389+P12390); assay: Heteromeric nAChR binding assay, transfected HEK293 membranes, [3H]epibatidine; settings: stably transfected HEK293 cells, [3H]epibatidine (0.5 nM)
# [6] = target: rat α7-nAChRs (Rattus norvegicus, UniProt Q05941); assay type: cell-based
# [7] = target: T3, α3β4-nAChR (Rattus norvegicus, UniProt P04757+P12392); assay: Heteromeric nAChR binding assay, transfected HEK293 membranes, [3H]epibatidine; settings: stably transfected HEK293 cells, [3H]epibatidine (0.5 nM)
# T3 construct: expressed in transfected cells
# [8] = target: rat a7-nAChR (Rattus norvegicus, UniProt Q05941); assay: biochemical; assay type: binding
# [9] = target: T4, α4β4-nAChR (Rattus norvegicus, UniProt P09483+P12392); assay: Heteromeric nAChR binding assay, transfected HEK293 membranes, [3H]epibatidine; settings: stably transfected HEK293 cells, [3H]epibatidine (0.5 nM)
# T4 construct: expressed in transfected cells
# [10] = target: T5, α2β4-nAChR (Rattus norvegicus, UniProt P12389+P12392); assay: as above; settings: stably transfected HEK293 cells, [3H]epibatidine (0.5 nM)
# T5 construct: expressed in transfected cells
# [11] = target: α7-nAChR (Rattus norvegicus, UniProt Q05941); assay: biochemical; assay type: binding
# [12] = assay type: binding; settings: read-out: human Ki α7-nAChR
# [13] = male, CD-1, mouse, in vivo, iv
# Experimental: (§1) Baboon arterial blood samples were withdrawn at 5, 10, 20, 30, 60, and 90 min after ^18-FASEM injection, and plasma was analyzed by HPLC. Male CD-1 mice (25-26 g) were injected via the lateral tail veins with 37 MBq of high-specific-activity ^18-FASEM. The mice were killed by cervical dislocation at 2 and 30 min after injection, and a terminal blood sample was obtained.
# [14] = target: T1, α7-nAChR; set-up: studied in mice, pigs, and non-human primates as potential α7-nAChR probes; host or cells: mouse brain (cortex) in vivo; species or system mice; settings: in vivo
# [15] = test system: a7-nAChR; settings: in vivo
# [16] = target: α7-nAChR (Homo sapiens, UniProt P36544); settings: in vivo
# [17] = target: T1, α7-nAChR; set-up: The brains were rapidly removed and dissected on ice; tissue Charles River Laboratories; host or cells: brain of live male CD-1 mice; species or system CD-1 mice; settings: in vivo
# [18] = 18F-ASEM radiometabolite analysis in mice
# Experimental: as §1
# [19] = 18F-ASEM radiometabolite analysis in baboon; settings: baboons, 90 min after injection
# Experimental: as §1
# [20] = male, human, in vivo
# T1 sequence (P49582 23-502): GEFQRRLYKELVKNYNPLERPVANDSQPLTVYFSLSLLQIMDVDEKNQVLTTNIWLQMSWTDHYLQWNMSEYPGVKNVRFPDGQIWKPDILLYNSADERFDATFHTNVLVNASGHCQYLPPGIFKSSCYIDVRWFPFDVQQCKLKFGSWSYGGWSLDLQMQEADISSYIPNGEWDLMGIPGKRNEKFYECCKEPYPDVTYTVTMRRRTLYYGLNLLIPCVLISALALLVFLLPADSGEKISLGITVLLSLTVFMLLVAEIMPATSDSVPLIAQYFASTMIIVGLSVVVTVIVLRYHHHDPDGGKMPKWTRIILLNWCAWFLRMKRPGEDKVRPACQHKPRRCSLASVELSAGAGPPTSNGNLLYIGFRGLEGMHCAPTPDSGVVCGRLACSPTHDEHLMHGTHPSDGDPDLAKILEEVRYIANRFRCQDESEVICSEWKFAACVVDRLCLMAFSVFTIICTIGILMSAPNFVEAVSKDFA
# Chain of α7-nAChR (Rattus norvegicus, UniProt Q05941) (Q05941 23-502): as the sequence (P49582 23-502) above, with T402A counted along it
# Chain of α7-nAChR (Homo sapiens, UniProt P36544) (P36544 23-502): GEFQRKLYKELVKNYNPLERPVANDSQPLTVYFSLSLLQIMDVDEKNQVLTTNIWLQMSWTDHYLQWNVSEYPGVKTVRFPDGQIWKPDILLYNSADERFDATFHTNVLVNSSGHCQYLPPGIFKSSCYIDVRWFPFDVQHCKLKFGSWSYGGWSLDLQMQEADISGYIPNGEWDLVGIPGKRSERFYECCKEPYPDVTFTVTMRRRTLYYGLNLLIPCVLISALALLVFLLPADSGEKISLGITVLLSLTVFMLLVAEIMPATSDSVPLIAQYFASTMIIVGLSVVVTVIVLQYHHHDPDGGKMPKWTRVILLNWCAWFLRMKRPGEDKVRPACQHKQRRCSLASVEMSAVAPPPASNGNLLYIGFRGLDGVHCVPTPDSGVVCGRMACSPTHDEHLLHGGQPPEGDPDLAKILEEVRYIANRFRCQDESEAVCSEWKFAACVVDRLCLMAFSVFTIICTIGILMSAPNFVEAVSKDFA
# Chain of α4β2-nAChR (P09483 31-630): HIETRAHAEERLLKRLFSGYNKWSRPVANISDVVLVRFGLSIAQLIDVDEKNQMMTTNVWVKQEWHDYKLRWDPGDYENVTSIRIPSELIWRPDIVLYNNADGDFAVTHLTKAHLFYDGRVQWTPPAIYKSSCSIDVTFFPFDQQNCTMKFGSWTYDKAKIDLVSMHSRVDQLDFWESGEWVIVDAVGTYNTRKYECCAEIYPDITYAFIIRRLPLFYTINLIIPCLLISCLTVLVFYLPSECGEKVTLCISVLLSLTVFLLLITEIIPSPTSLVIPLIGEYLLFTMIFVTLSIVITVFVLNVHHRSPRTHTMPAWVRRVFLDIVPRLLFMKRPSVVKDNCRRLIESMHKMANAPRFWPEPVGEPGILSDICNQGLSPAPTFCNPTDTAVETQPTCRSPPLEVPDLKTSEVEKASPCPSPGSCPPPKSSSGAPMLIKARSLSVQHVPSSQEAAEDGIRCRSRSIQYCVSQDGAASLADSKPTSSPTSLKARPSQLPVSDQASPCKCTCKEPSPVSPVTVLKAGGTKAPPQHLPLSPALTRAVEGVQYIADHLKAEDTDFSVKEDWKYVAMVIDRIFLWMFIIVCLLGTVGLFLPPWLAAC
# Chain of α4β2-nAChR (P12390 25-500): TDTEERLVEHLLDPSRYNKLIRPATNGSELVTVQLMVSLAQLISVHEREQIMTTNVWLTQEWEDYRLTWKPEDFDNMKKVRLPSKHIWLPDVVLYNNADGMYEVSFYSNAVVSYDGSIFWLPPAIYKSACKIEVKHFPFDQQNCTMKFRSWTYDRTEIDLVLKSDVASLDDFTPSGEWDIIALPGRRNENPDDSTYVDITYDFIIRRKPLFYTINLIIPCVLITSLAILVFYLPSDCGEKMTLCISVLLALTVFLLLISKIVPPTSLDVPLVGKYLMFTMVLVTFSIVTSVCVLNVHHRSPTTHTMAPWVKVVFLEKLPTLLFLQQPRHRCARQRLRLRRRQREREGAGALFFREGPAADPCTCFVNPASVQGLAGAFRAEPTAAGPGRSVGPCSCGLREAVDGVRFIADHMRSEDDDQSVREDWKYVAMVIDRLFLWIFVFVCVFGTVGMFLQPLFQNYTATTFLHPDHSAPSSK
# Chain of rat α7-nAChRs (Q05941 23-502): as the sequence (P49582 23-502) above, with T402A counted along it
# Chain of α2β2-nAChR (P12389 28-511): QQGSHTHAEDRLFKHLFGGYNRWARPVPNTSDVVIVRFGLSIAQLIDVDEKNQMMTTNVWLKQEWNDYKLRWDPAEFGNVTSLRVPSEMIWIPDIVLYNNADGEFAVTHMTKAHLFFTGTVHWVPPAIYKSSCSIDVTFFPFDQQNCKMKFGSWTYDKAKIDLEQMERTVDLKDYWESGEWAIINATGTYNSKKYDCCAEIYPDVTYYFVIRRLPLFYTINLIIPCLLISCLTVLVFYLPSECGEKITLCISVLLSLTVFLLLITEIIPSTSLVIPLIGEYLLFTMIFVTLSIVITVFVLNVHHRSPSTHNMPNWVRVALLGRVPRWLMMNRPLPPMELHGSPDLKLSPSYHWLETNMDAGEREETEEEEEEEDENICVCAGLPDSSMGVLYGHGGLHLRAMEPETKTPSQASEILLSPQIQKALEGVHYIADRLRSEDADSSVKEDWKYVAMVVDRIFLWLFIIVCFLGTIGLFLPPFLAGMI
# Chain of α2β2-nAChR (P12390 25-500): as the sequence (P12390 25-500) above
# T5 sequence (P12389 28-511): as the sequence (P12389 28-511) above
# T5 sequence (P12392 21-495): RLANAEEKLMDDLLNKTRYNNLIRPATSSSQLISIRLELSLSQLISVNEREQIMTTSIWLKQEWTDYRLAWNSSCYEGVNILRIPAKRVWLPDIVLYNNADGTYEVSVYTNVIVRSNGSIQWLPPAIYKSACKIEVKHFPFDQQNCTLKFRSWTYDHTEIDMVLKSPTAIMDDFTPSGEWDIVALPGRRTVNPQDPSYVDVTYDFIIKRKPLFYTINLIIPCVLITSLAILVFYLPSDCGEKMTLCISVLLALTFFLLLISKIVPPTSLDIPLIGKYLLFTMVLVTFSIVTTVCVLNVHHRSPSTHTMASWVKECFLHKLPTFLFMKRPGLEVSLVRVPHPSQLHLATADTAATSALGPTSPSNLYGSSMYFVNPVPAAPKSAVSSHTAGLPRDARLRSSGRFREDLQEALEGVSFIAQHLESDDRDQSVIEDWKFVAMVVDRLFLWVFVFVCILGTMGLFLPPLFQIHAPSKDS
# Chain of α3β2-nAChR (P04757 26-499): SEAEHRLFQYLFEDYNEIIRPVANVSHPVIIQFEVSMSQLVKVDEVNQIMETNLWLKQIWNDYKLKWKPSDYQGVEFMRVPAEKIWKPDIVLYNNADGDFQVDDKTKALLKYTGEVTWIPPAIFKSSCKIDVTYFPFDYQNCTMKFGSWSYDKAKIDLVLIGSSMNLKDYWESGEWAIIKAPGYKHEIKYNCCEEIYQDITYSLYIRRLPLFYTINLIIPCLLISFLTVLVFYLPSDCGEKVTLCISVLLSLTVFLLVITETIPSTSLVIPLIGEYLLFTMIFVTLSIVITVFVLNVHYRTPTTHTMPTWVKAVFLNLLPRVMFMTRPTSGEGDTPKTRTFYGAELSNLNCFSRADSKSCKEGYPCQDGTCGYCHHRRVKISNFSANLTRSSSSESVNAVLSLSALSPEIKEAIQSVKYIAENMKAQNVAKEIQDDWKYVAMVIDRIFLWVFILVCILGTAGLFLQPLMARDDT
# Chain of α3β2-nAChR (P12390 25-500): as the sequence (P12390 25-500) above
# T3 sequence (P04757 26-499): as the sequence (P04757 26-499) above
# T3 sequence (P12392 21-495): as the sequence (P12392 21-495) above
# T4 sequence (P09483 31-630): as the sequence (P09483 31-630) above
# T4 sequence (P12392 21-495): as the sequence (P12392 21-495) above
# Chain of rat a7-nAChR (Q05941 23-502): as the sequence (P49582 23-502) above, with T402A counted along it
smiles,measurement,setting,value
"O=S1(=O)c2cc(N3CCN4CCC3CC4)ccc2-c2cccc(F)c21 [Compound 7a, 3-(1,4-Diazabicyclo[3.2.2]nonan-4-yl)-6-fluorodibenzo[b,d]thiophene 5,5-Dioxide]",Ki,[1],1000 nM
same,selectivity α7/α4β2,[2],1370
same,Ki,"[2]; stably transfected HEK293 cells, [3H]epibatidine (0.5 nM)",562 nM
same,behavioral / locomotor activity changes,[3],Neither behavioral nor locomotor activity changes were observed
same,selectivity α7/5HT3,[4],561
same,Ki,"[4]; Human 5-HT3 recombinant/HEK293 cells, [3H]GR65630 (0.35 nM)",230 nM
same,Ki,[5],> 10 µM
same,block of acetylcholine activation,[6],nearly completely blocked activation by acetylcholine
same,Ki,[7],709 nM
same,Ki,[8],0.3 nM
same,Ki,[9],1000 nM
same,Ki,[10],4 µM
same,Ki,[11]; read-out: Ki α7-nAChR,0.37 nM and 0.45 nM
same,Ki,[11]; read-out: Ki α7-nAChR (text),0.4 nM
O=S1(=O)c2cc(N3CCN4CCC3CC4)ccc2-c2cccc([18F])c21 [[^18F]7a],Ki,[12],0.3 nM
same,unchanged parent in the mouse brain,[13],at least 95%
same,baseline-to-blockade ratio,[3],13
same,specific binding value,[3],94%
same,regional brain uptake in mutant DISC1 versus control mice,[14],significantly lower in all regions studied
same,Regional BPND ([VT/VND]−1),[15],3.9 to 6.6 and 3.9-6.6
same,nonspecific binding,[15],less than 30%
same,specific binding,[15],80%-90%
same,brain uptake,"[15]; male, baboon (Papio anubis)",500 % standardized uptake value [SUV]
same,lowest observed VT,"[15]; male, baboon (Papio anubis)",14 mL/mL
same,"acetylcholine-induced whole-cell current restored, of baseline",[6],60%
same,binding potential BPND,[16],~1
same,test-retest variability (TRV),[16],10.8±5.1%
same,"VT, lower regions","[16]; male, human",G15 ml/ml
same,"VT, relatively high regions","[16]; male, human",920 ml/ml
same,peak brain uptake,"[16]; male, human",400 %SUV
same,time of peak brain uptake,"[16]; male, human",10 to 15 min
same,"Approximate BPND, Coll",[17],8.0 and 8.0 ± 1.6
same,"Approximate BPND, Ctx",[17],5.3 and 5.3 ± 1.2
same,"Approximate BPND, Hipp",[17],5.5 and 5.5 ± 1.7
same,BPND in control mice,[17],8 and 5.3-8.0
same,ratios of tissues to cerebellum,[17]; iv,10
same,unchanged parent in the mouse blood,[18]; after intravenous administration,approximately 1%
same,combined radiometabolites in the plasma,"[18]; mice, 30 min after injection",approximately 99%
same,combined radiometabolites in the plasma,[19],70%
same,Ki,[11]; Ki α7-nAChR (text),0.4 nM
same,time of plasma TAC peak,[20],≤ 1 min
same,parent metabolized,[20]; 0.5 h,52.6±12.9%
same,parent metabolized,[20]; 1.5 h,83.5±9.7%
